Patent US11319292B2, “Metabolically stable 5-HMF derivatives for the treatment of hypoxia” (King Abdulaziz University, priority 2020, dated 2022)
One block for each molecule: values may come before it.

Key:
[1] = in-vivo; aldehyde protected by L-cysteine; cited from earlier work
[2] = tested on: intact SS cells; test: Inhibition of hypoxia-induced RBC sickling (RBC morphology study) in homozygous SS blood; assay type: cell-based, human; settings: SS blood hematocrit 20%, 2.5% oxygen, 37° C., 2 hr
Excerpt: (§1) Materials and General Procedure: Leftover blood samples from patients with homozygous SS were obtained and utilized, based on an approved IRB protocol at the Children's Hospital of Philadelphia, with informed consent.
(§2) Experimental Procedure: The MMA series of compounds (MMA-301, MMA-304, MMA-205, MMA-401, MMA-402, MMA-403, MMA-405, MMA-406, MMA-407, MMA-408, MMA-409 and MMA-410) and the positive controls vanillin and 5-HMF were studied for their abilities to inhibit hypoxia-induced RBC sickling (RBC morphology study), increase Hb oxygen, and/or modify Hb (adduct formation) as previously published.^31,33 Briefly, homozygous SS blood (hematocrit: 20%) suspensions were incubated under air in the absence or presence of 2 and/or 5 mM concentration of test compounds at 37° C. for 1 hr. Following, the suspensions were incubated under hypoxic condition (2.5% oxygen) at 37° C. for 2 hr. Aliquot samples were fixed with 2% glutaraldehyde solution without exposure to air, and then subjected to microscopic morphological analysis. The residual samples were washed in phosphate-buffered saline, and hemolyzed in hypotonic lysis buffer for the Hb oxygen equilibrium and Hb adduct experiments. For the Hb oxygen equilibrium study, approximately 100 μl aliquot samples from the lysate were added to 4 ml of 0.1M potassium phosphate buffer, pH 7.0, in a cuvette and subjected to hemoximetry analysis using Hemox™ Analyzer (TCS Scientific Corp.) to assess P50 shifts. Another aliquot from the lysate was also subjected to Hb adduct formation study using cation-exchange HPLC (Hitachi D-7000 Series, Hitachi Instruments, Inc., San Jose, Calif.) with a weak cation-exchange column (Poly CAT A: 30 mm×4.6 mm, Poly LC, Inc., Columbia, Md.). To determine the binding of the MMA compounds to either α- or β-globin chains, the hemolysates were subjected to reversed-phase (RP) HPLC on a Hitachi D-7000 HSM Series, using a Jupiter 5 μm C-4 50×4.6 mm column, (Phenomenex®, Torrence, Calif.) and a gradient from 20% to 60% acetonitrile in 0.3% trifluoroacetic acid in 15 minutes, with UV detection at 215 nm.

[3] = molecular target: T1, Hb (Homo sapiens, UniProt P68871+P69905, E7V); test: Hb oxygen equilibrium study (P50 shift, Hemox Analyzer) on lysate of compound-treated SS cells; assay type: cell-based; settings: intact SS cells; for activation at 2000 µM: 2 mM compound; for activation at 2000 µM / activation at 5000 µM: read-out: increase in Hb oxygen affinity (ΔP50); for activation at 5000 µM: 5 mM compound; for effect on Hb affinity for oxygen: 2 mM and/or 5 mM
T1 construct: Leftover blood samples from patients with homozygous SS were obtained and utilized; from tissue; host or cells: blood (red cells, then hemolysate) of patients with homozygous SS
Excerpt: as §1, §2

[4] = molecular target: T1, Hb; test: Hb adduct formation study by cation-exchange HPLC after incubation with intact SS cells; assay type: cell-based; settings: 2 mM and/or 5 mM
Excerpt: as §1
(§3) Experimental Procedure: The MMA series of compounds (MMA-301, MMA-304, MMA-205, MMA-401, MMA-402, MMA-403, MMA-405, MMA-406, MMA-407, MMA-408, MMA-409 and MMA-410) and the positive controls vanillin and 5-HMF were studied for their abilities to inhibit hypoxia-induced RBC sickling (RBC morphology study), increase Hb oxygen, and/or modify Hb (adduct formation) as previously published.^31,33 Briefly, homozygous SS blood (hematocrit: 20%) suspensions were incubated under air in the absence or presence of 2 and/or 5 mM concentration of test compounds at 37° C. for 1 hr. Following, the suspensions were incubated under hypoxic condition (2.5% oxygen) at 37° C. for 2 hr. Aliquot samples were fixed with 2% glutaraldehyde solution without exposure to air, and then subjected to microscopic morphological analysis. The residual samples were washed in phosphate-buffered saline, and hemolyzed in hypotonic lysis buffer for the Hb oxygen equilibrium and Hb adduct experiments. […]

[5] = molecular target: T2, α- or β-globin chains (Homo sapiens, UniProt P68871+P69905, E7V); test: Reversed-phase HPLC of hemolysates for binding to α- or β-globin chains; assay type: cell-based; settings: 2 mM and 5 mM; intact SS cells; reverse-phase HPLC
T2 construct: Leftover blood samples from patients with homozygous SS were obtained and utilized; from tissue; host or cells: blood (red cells, then hemolysate) of patients with homozygous SS
Excerpt: as §1, §3

[6] = molecular target: βCys93 of Hb (Homo sapiens, UniProt P68871); test: Reactivity toward βCys93 of Hb (DTNB disulfide exchange, absorbance at 412 nm); assay type: biochemical; settings: 2 mM compound, Hb 50 μM, four hours at 25° C.
Method: Experimental Procedure: Aqueous solution of Hb (50 μM) was mixed with MMA 409 or MMA 410 (2 mM). Additionally, Hb was mixed with phosphate buffered saline (PBS) to serve as a negative control. […] Ethacrynic acid, which is known to bind to the thiols of hemoglobin and thus limits the reaction between DTNB (5,5′-dithiobis-(2-nitrobenzoic acid) and βCys93, was studied as a positive control.^42 The mixtures were incubated for four hours at 25° C., and then centrifuged with washing to separate excess reagents from the Hb. The washed hemoglobin was stored overnight at 4° C. After, 5 μL of 100 mM DTNB was added to 25 μL of each Hb solution, and these solutions were each diluted to 500 μL in 0.1 M phosphate buffer and were incubated for an hour. Another 25 μL of each Hb solution was diluted to 500 μL in buffer to serve as a non-DTNB control. The tubes containing these solutions were centrifuged, and the collected yellow filtrate was quantified by measuring absorbance at 412 nm using a spectrophotometer as previously described.^42

[7] = molecular target: T3, Hb (Homo sapiens, UniProt P68871+P69905); test: In vitro time-dependent Hb oxygen equilibrium study using normal whole blood; assay type: in vitro ADME; settings: 2 mM; normal whole blood 30% hct; 37° C.; 1, 4 and 24 hr
T3 construct: Normal whole blood was collected from adult donors; from tissue; host or cells: normal whole blood of adult donors
Method: Materials and General Procedure: Normal whole blood was collected from adult donors at the Virginia Commonwealth University after informed consent, in accordance with regulations of the IRB for Protection of Human.
Experimental procedure: MMA-409 and the control 5-HMF were used to conduct time-dependent studies on Hb oxygen oxygen equilibrium using normal whole blood. The study was performed in a 96-well deep well (Thermo Scientific) plate, where each compound at 2 mM concentration was added to 600 μL of whole blood (30% hct) and incubated at 37° C. for 24 hr with shaking (at 140 rpm). Additionally, DMSO (1%) alone was also tested as a negative control. At 1, 4 and 24 hr time intervals, 75 μL aliquot of blood was removed from each well using a multichannel pipette and the reaction stopped by freezing at −80° C. until ready for hemoximetry analysis using Hemox™ Analyzer (TCS Scientific Corp.) to assess P50 shifts.^32 The observed P50 shifts values in % P50 shifts were plotted as function of time [hrs].

Structure (SMILES): O=C(O)C1CSC(c2ccc(CO)o2)N1 (centres unmarked) [thiazolidine complex of 5-HMF]
extension of 5-HMF half-life [1]: 2 fold

Structure (SMILES): COc1cc(C=O)ccc1O [vanillin, reference compound]
RBC sickling (reduced to) ([2]; 2 mM compound): 57%
RBC sickling (reduced to) ([2]; 5 mM compound): 36%
activation at 2000 µM [3]: 12%
activation at 5000 µM [3]: 27%

Structure (SMILES): O=Cc1ccc(CO)o1 [5-HMF, 5-Hydroxymethylfurfural]
RBC sickling (reduced to) ([2]; 2 mM compound): 50%
RBC sickling (reduced to) ([2]; 5 mM compound): 14%
activation at 2000 µM [3]: 33%
time course of biological activity (P50 shift) over 24 hr [7]: declined rapidly

Structure (SMILES): C=C(CC)C(=O)c1ccc(OCC(=O)O)c(Cl)c1Cl [ethacrynic acid, Ethacrynic acid, reference compound]
% free thiols of βCys93 [6]: 54%

Further lines, with some results ahead:

activation at 2000 µM [3]: 22%
activation at 5000 µM [3]: 52%
Hb modification (adduct formation) [4]: significant Hb modification
% free thiols of βCys93 [6]: 46%
Structure (SMILES): C=CC(=O)c1ccc(COc2ccccc2)o1 [MMA-409]
RBC sickling (reduced to) ([2]; 2 mM compound): 49%
RBC sickling (reduced to) ([2]; 5 mM compound): 18%
adduct formation with globin chain [5]: exclusive adduct formation with the β-chain
time course of biological activity (P50 shift) over 24 hr [7]: sustained throughout the 24 hr experiment

melting point: 138 °C
Structure (SMILES): O=C(O)/C=C/c1ccc(CO)o1 [MMA-401, (E)-3-(5-(hydroxymethyl)furan-2-yl)acrylic acid]

effect on Hb affinity for oxygen [3]: no effect
melting point: 66 °C
Structure (SMILES): COC(=O)/C=C/c1ccc(CO)o1 [MMA-406, methyl (E)-3-(5-(hydroxymethyl)furan-2-yl)acrylate]

% free thiols of βCys93 [6]: 54%
Structure (SMILES): C#CC(=O)c1ccc(COc2ccccc2)o1 [MMA-410]

activation at 2000 µM [3]: 16.5%
activation at 5000 µM [3]: 22.1%
Structure (SMILES): NC(=O)C(=O)c1ncc[nH]1 [MMA-304]

effect on Hb affinity for oxygen [3]: no effect
Structure (SMILES): COCc1ccc(C(=O)C(F)(F)F)o1 [MMA-405, 2,2,2-trifluoro-1-(5-(methoxymethyl)furan-2-yl)ethan-1-one]

activation at 2000 µM [3]: 12.7%
activation at 5000 µM [3]: 18.2%
Structure (SMILES): CC(=O)/C=C/c1ncc[nH]1 [MMA-301, (E)-4-(1H-imidazol-2-yl)but-3-en-2-one]

melting point: 20 °C
Structure (SMILES): CC(=O)/C=C/c1ccc(CO)o1 [MMA-404, (E)-4-(5-(hydroxymethyl)furan-2-yl)but-3-en-2-one]

melting point: 131 to 156 °C
Structure (SMILES): NC(=O)/C=C/c1ccc(CO)o1 [MMA-403, (E)-3-(5-(hydroxymethyl)furan-2-yl)acrylamide]
